Results: patent publication US20260234555A1 (priority 2022, published 2026)

Tested on: mouse salivary gland organoids

CC(=O)OCC[N+](C)(C)C.[Cl-] [acetylcholine, Acetylcholine chloride]
effect on the morphology and growth of the organoids: no effect

CN(C)C(=O)Oc1cccc([N+](C)(C)C)c1 [neostigmine, Neostigmine bromide]
changes in the morphology and growth of the organoids: no significant changes
